Test results from patent EP4721744A1, “PHARMACEUTICAL COMPOSITION COMPRISING CEPHALOSPORIN ANTIBACTERIAL COMPOUND” (Jiangsu Hengrui Pharmaceuticals Co., Ltd., priority 2023, dated 2024).

Key:
[1] = Solubility test in different solvent systems; type: physicochemical
Method: Different solvent systems were prepared to test the solubility of the compound as shown in formula (I). Table 1 Solubility test

[2] = bulk compound; needs to be stored at or below -60°C; cited from earlier work
[3] = Purified water + 1 M NaOH solution for pH adjustment, 4.9 ml, charging amount 500.4 mg
[4] = Purified water, 250 mL, charging amount 20.01 mg

## CC(C)(O/N=C(\C(=O)N[C@@H]1C(=O)N2C(C(=O)[O-])=C(C[N+]3(CCCN(CCCNC(=O)c4ccc(O)c(O)c4Cl)C(=O)c4ccc(O)c(O)c4Cl)CCCC3)CS[C@H]12)c1csc(N)n1)C(=O)O [compound as shown in formula (I)]
[1]; Hydrochloric acid (pH 1.0), 200 mL, charging amount 19.99 mg
  Dissolution Status: Incomplete dissolution
[1]; [3]
  Dissolution Status: Complete dissolution
  Solution pH after complete dissolution: 5.08
[1]; Purified water, 20 mL, charging amount 20.01 mg
  Dissolution Status: Incomplete dissolution
[1]; [4]
  Dissolution Status: Complete dissolution
  Solution pH after complete dissolution: 3.6
[1]; Purified water, 250 mL, solution pH 3.6
  solubility: < 1 mg/mL
[1]; purified water adjusted with 1 M NaOH solution, aqueous buffer, Purified water + 1 M NaOH solution for pH adjustment, 4.9 ml, solution pH 5.08
  solubility: ≥ 100 mg/mL
[2]
  stability: extremely poor stability
